According to ChEMBL document CHEMBL1201862, “PubChem BioAssay data set” (2004):
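Protocol summary: plate cells (96-well), add compound at 5 concentrations, incubate 48 h, interpolate endpoints linearly. The concentration for 50% growth inhibition is given as GI50.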 Activity calls are given as the source filed them. Cut-off read from the data, not from the text of the source: active = GI50 up to about 1.1 µM and inactive = higher.

Tests used:
Test in all cases: growth of human tumour cells (NCI), 48 h
OVCAR-3 = tested on: OVCAR-3
EKVX = tested on: EKVX
CAKI-1 = tested on: CAKI-1
RPMI-8226 = tested on: RPMI-8226
SF-295 = tested on: SF-295
NCI-H522 = tested on: NCI-H522
MCF7 = tested on: MCF7
Hs-578T = tested on: Hs-578T
RXF 393 = tested on: RXF 393
A498 = tested on: A498
SN12C = tested on: SN12C
NCI-H226 = tested on: NCI-H226
UO-31 = tested on: UO-31
A549 = tested on: A549
T47D = tested on: T47D
NCI-H460 = tested on: NCI-H460
UACC-257 = tested on: UACC-257
TK-10 = tested on: TK-10
SNB-19 = tested on: SNB-19
SK-MEL-28 = tested on: SK-MEL-28
OVCAR-5 = tested on: OVCAR-5
HCC 2998 = tested on: HCC 2998
Malme-3M = tested on: Malme-3M
LOX IMVI = tested on: LOX IMVI
IGROV-1 = tested on: IGROV-1
NCI/ADR-RES = tested on: NCI/ADR-RES
COLO 205 = tested on: COLO 205
MOLT-4 = tested on: MOLT-4
NCI-H23 = tested on: NCI-H23
MDA-MB-435 = tested on: MDA-MB-435
SF-539 = tested on: SF-539
HCT-15 = tested on: HCT-15
MDA-MB-231 = tested on: MDA-MB-231
HCT-116 = tested on: HCT-116
SK-MEL-5 = tested on: SK-MEL-5
OVCAR-4 = tested on: OVCAR-4
BT-549 = tested on: BT-549
UACC-62 = tested on: UACC-62
SR = tested on: SR
KM12 = tested on: KM12
DU-145 = tested on: DU-145
PC-3 = tested on: PC-3
MDA-N = tested on: MDA-N
SNB-75 = tested on: SNB-75
ACHN = tested on: ACHN
786-0 = tested on: 786-0
HOP-62 = tested on: HOP-62
M14 = tested on: M14
HOP-92 = tested on: HOP-92
SW-620 = tested on: SW-620
K562 = tested on: K562
HT-29 = tested on: HT-29
OVCAR-8 = tested on: OVCAR-8
HL-60 = tested on: HL-60
U-251 = tested on: U-251
CCRF-CEM = tested on: CCRF-CEM
SK-OV-3 = tested on: SK-OV-3
SF-268 = tested on: SF-268
SK-MEL-2 = tested on: SK-MEL-2

Compound: CCN(CC)CCn1ncc2ccc3c(c(=O)c4cccnc4n3CCN(CC)CC)c21
- GI50 (OVCAR-3): 1.13 µM (inactive)
- GI50 (EKVX): 1.29 µM (inactive)
- GI50 (CAKI-1): 3.54 µM (inactive)
- GI50 (RPMI-8226): 0.931 µM (active)
- GI50 (SF-295): 1.3 µM (inactive)
- GI50 (NCI-H522): 0.845 µM (active)
- GI50 (MCF7): 0.618 µM (active)
- GI50 (Hs-578T): 2.17 µM (inactive)
- GI50 (RXF 393): 0.67 µM (active)
- GI50 (A498): 0.598 µM (active)
- GI50 (SN12C): 0.621 µM (active)
- GI50 (NCI-H226): 1.7 µM (inactive)
- GI50 (UO-31): 1.5 µM (inactive)
- GI50 (A549): 0.618 µM (active)
- GI50 (T47D): 2.28 µM (inactive)
- GI50 (NCI-H460): 0.403 µM (active)
- GI50 (UACC-257): 1.88 µM (inactive)
- GI50 (TK-10): 2.24 µM (inactive)
- GI50 (SNB-19): 1.97 µM (inactive)
- GI50 (SK-MEL-28): 2.05 µM (inactive)
- GI50 (OVCAR-5): 1.09 µM (active)
- GI50 (HCC 2998): 0.75 µM (active)
- GI50 (Malme-3M): 1.75 µM (inactive)
- GI50 (LOX IMVI): 0.521 µM (active)
- GI50 (IGROV-1): 0.625 µM (active)
- GI50 (NCI/ADR-RES): 1.45 µM (inactive)
- GI50 (COLO 205): 0.493 µM (active)
- GI50 (MOLT-4): 0.344 µM (active)
- GI50 (NCI-H23): 1.29 µM (inactive)
- GI50 (MDA-MB-435): 0.655 µM (active)
- GI50 (SF-539): 0.589 µM (active)
- GI50 (HCT-15): 0.743 µM
- GI50 (MDA-MB-231): 1.67 µM (inactive)
- GI50 (HCT-116): 0.385 µM (active)
- GI50 (SK-MEL-5): 1.09 µM (active)
- GI50 (OVCAR-4): 0.933 µM (active)
- GI50 (BT-549): 2.25 µM (inactive)
- GI50 (UACC-62): 2.49 µM (inactive)
- GI50 (SR): 0.284 µM (active)
- GI50 (KM12): 0.603 µM (active)
- GI50 (DU-145): 2.41 µM (inactive)
- GI50 (PC-3): 0.986 µM (active)
- GI50 (MDA-N): 0.861 µM (active)
- GI50 (SNB-75): 1.05 µM (active)
- GI50 (ACHN): 0.733 µM (active)
- GI50 (786-0): 0.438 µM (active)
- GI50 (HOP-62): 0.867 µM (active)
- GI50 (M14): 1.41 µM (inactive)
- GI50 (HOP-92): 1.38 µM (inactive)
- GI50 (SW-620): 0.519 µM (active)
- GI50 (K562): 0.119 µM (active)
- GI50 (HT-29): 0.435 µM (active)
- GI50 (OVCAR-8): 0.561 µM (active)
- GI50 (HL-60): 1.09 µM (active)
- GI50 (U-251): 0.597 µM (active)
- GI50 (CCRF-CEM): 0.348 µM (active)
- GI50 (SK-OV-3): 1.16 µM (inactive)
- GI50 (SF-268): 1.35 µM (inactive)
- GI50 (SK-MEL-2): 1.79 µM (inactive)

Compound: O=C(/C=C/c1ccccc1)Nc1ccccc1SCCCCl
- GI50 (OVCAR-3): 13.1 µM (inactive)
- GI50 (EKVX): 15.4 µM (inactive)
- GI50 (CAKI-1): 5.79 µM (inactive)
- GI50 (RPMI-8226): 27.4 µM (inactive)
- GI50 (SF-295): 7.89 µM (inactive)
- GI50 (NCI-H522): 4.07 µM (inactive)
- GI50 (MCF7): 4.4 µM (inactive)
- GI50 (Hs-578T): 6.81 µM (inactive)
- GI50 (RXF 393): 8.43 µM (inactive)
- GI50 (A498): 9.08 µM (inactive)
- GI50 (SN12C): 8.93 µM (inactive)
- GI50 (NCI-H226): > 33.7 µM (inactive)
- GI50 (UO-31): 7.48 µM (inactive)
- GI50 (A549): 25 µM (inactive)
- GI50 (T47D): 7.52 µM (inactive)
- GI50 (NCI-H460): 10.2 µM (inactive)
- GI50 (UACC-257): 18.2 µM (inactive)
- GI50 (TK-10): 55.7 µM (inactive)
- GI50 (SNB-19): 19.1 µM (inactive)
- GI50 (SK-MEL-28): > 47.4 µM (inactive)
- GI50 (OVCAR-5): 34 µM (inactive)
- GI50 (HCC 2998): 21.6 µM (inactive)
- GI50 (Malme-3M): 10.7 µM (inactive)
- GI50 (LOX IMVI): 8.81 µM (inactive)
- GI50 (IGROV-1): 1.18 µM (inactive)
- GI50 (NCI/ADR-RES): 3.66 µM (inactive)
- GI50 (COLO 205): 15.6 µM (inactive)
- GI50 (MOLT-4): 12.7 µM (inactive)
- GI50 (NCI-H23): 3.56 µM (inactive)
- GI50 (MDA-MB-435): 4.95 µM (inactive)
- GI50 (SF-539): 8.57 µM (inactive)
- GI50 (HCT-15): 13.4 µM
- GI50 (MDA-MB-231): 11.4 µM (inactive)
- GI50 (HCT-116): 8.91 µM (inactive)
- GI50 (SK-MEL-5): 19.3 µM (inactive)
- GI50 (OVCAR-4): 12.1 µM (inactive)
- GI50 (BT-549): 8.11 µM (inactive)
- GI50 (UACC-62): 6.9 µM (inactive)
- GI50 (SR): 9.38 µM (inactive)
- GI50 (KM12): 3.78 µM (inactive)
- GI50 (DU-145): 10.2 µM (inactive)
- GI50 (PC-3): 9.91 µM (inactive)
- GI50 (MDA-N): 6.38 µM (inactive)
- GI50 (SNB-75): 17.7 µM (inactive)
- GI50 (ACHN): 20 µM (inactive)
- GI50 (786-0): 13.4 µM (inactive)
- GI50 (HOP-62): 15 µM (inactive)
- GI50 (M14): 20.1 µM (inactive)
- GI50 (HOP-92): 3.67 µM (inactive)
- GI50 (SW-620): 6.46 µM (inactive)
- GI50 (K562): 9.66 µM (inactive)
- GI50 (HT-29): 7.94 µM (inactive)
- GI50 (OVCAR-8): 16.5 µM (inactive)
- GI50 (HL-60): 3.8 µM (inactive)
- GI50 (U-251): 8.93 µM (inactive)
- GI50 (CCRF-CEM): 10 µM (inactive)
- GI50 (SK-OV-3): 8.41 µM (inactive)
- GI50 (SF-268): 14.4 µM (inactive)
- GI50 (SK-MEL-2): 22.2 µM (inactive)

Compound: CCOC(=O)CSc1nc(N)c2c(-c3ccccc3)c3c(nc2n1)CCCC3
- GI50 (OVCAR-3): > 100 µM (inactive)
- GI50 (EKVX): > 100 µM (inactive)
- GI50 (CAKI-1): > 100 µM (inactive)
- GI50 (RPMI-8226): > 100 µM (inactive)
- GI50 (SF-295): > 100 µM (inactive)
- GI50 (NCI-H522): > 100 µM (inactive)
- GI50 (MCF7): > 100 µM (inactive)
- GI50 (Hs-578T): 65.8 µM (inactive)
- GI50 (RXF 393): > 100 µM (inactive)
- GI50 (A498): > 100 µM (inactive)
- GI50 (SN12C): > 100 µM (inactive)
- GI50 (NCI-H226): > 100 µM (inactive)
- GI50 (UO-31): 25.1 µM (inactive)
- GI50 (A549): > 100 µM (inactive)
- GI50 (T47D): > 100 µM (inactive)
- GI50 (NCI-H460): > 100 µM (inactive)
- GI50 (UACC-257): > 100 µM (inactive)
- GI50 (TK-10): > 100 µM (inactive)
- GI50 (SNB-19): > 100 µM (inactive)
- GI50 (SK-MEL-28): > 100 µM (inactive)
- GI50 (OVCAR-5): > 100 µM (inactive)
- GI50 (HCC 2998): > 100 µM (inactive)
- GI50 (Malme-3M): > 100 µM (inactive)
- GI50 (LOX IMVI): > 100 µM (inactive)
- GI50 (IGROV-1): > 100 µM (inactive)
- GI50 (NCI/ADR-RES): > 100 µM (inactive)
- GI50 (COLO 205): > 100 µM (inactive)
- GI50 (MOLT-4): > 100 µM (inactive)
- GI50 (NCI-H23): > 100 µM (inactive)
- GI50 (MDA-MB-435): > 100 µM (inactive)
- GI50 (SF-539): > 100 µM (inactive)
- GI50 (HCT-15): > 100 µM
- GI50 (MDA-MB-231): > 100 µM (inactive)
- GI50 (HCT-116): > 100 µM (inactive)
- GI50 (SK-MEL-5): > 100 µM (inactive)
- GI50 (OVCAR-4): > 100 µM (inactive)
- GI50 (BT-549): > 100 µM (inactive)
- GI50 (UACC-62): > 100 µM (inactive)
- GI50 (SR): > 100 µM (inactive)
- GI50 (KM12): > 100 µM (inactive)
- GI50 (DU-145): > 100 µM (inactive)
- GI50 (PC-3): > 100 µM (inactive)
- GI50 (MDA-N): > 100 µM (inactive)
- GI50 (SNB-75): 98.6 µM (inactive)
- GI50 (ACHN): > 100 µM (inactive)
- GI50 (786-0): > 100 µM (inactive)
- GI50 (HOP-62): > 100 µM (inactive)
- GI50 (M14): > 100 µM (inactive)
- GI50 (HOP-92): > 100 µM (inactive)
- GI50 (SW-620): > 100 µM (inactive)
- GI50 (K562): > 100 µM (inactive)
- GI50 (HT-29): > 100 µM (inactive)
- GI50 (OVCAR-8): > 100 µM (inactive)
- GI50 (HL-60): > 100 µM (inactive)
- GI50 (U-251): > 100 µM (inactive)
- GI50 (CCRF-CEM): > 100 µM (inactive)
- GI50 (SK-OV-3): > 100 µM (inactive)
- GI50 (SF-268): > 100 µM (inactive)
- GI50 (SK-MEL-2): > 100 µM (inactive)
